Source: ChEMBL document CHEMBL1123158, “Synthesis and quantitative structure-activity relationships of antiallergic 2-hydroxy-N-1H-tetrazol-5-ylbenzamides and N-(2-hydroxyphenyl)-1H-tetrazole-5-carboxamides” (J Med Chem, 1986)

Experiments:
[1] = test system: Rattus norvegicus; assay: Antiallergic activity in the rat PCA test following iv administration relative to M&B 22,948, the dose of which was 0.1 mg/kg for 100% inhibition; format: functional
[2] = organism: Rattus norvegicus; assay: Biological activity; format: functional

| SMILES | Relative activity [1] | Log [MrI] [2] |
| --- | --- | --- |
| COc1cc(OC)c(O)c(C(=O)Nc2nn[nH]n2)c1 | 0.5 | 2.122 |
| O=C(Nc1nn[nH]n1)c1ccccc1O | 0.1 | 1.312 |
| CCC(=O)c1cc(C)cc(C(=O)Nc2nn[nH]n2)c1O | 2 | 2.741 |
| CC(=O)c1cc(C(C)(C)C)cc(NC(=O)c2nn[nH]n2)c1O | 0.5 | 2.17 |
| Cc1cc(NC(=O)c2nn[nH]n2)c(O)c(-c2nn[nH]n2)c1 | 1 | 2.455 |
| CSc1ccc(O)c(C(=O)Nc2nn[nH]n2)c1 | 0.2 | 1.701 |
| O=C(Nc1ccccc1O)c1nn[nH]n1 | 1 | 2.31 |
| COc1cc(C(C)=O)c(O)c(C(=O)Nc2nn[nH]n2)c1 | 2 | 2.743 |
| O=C(Nc1nn[nH]n1)c1cc(-c2ccccc2)ccc1O | 0.01 | 0.449 |
| O=C(Nc1nn[nH]n1)c1cc(Cl)ccc1O | 0.1 | 1.38 |
| O=C(Nc1nn[nH]n1)c1cc(Br)ccc1O | 0.02 | 0.756 |
| COc1cc(C(C)(C)C)cc(C(=O)Nc2nn[nH]n2)c1O | 0.1 | 1.464 |
| CC(=O)c1cc([N+](=O)[O-])cc(C(=O)Nc2nn[nH]n2)c1O | 1 | 2.465 |
| CCc1cc(NC(=O)c2nn[nH]n2)c(O)c(C(C)=O)c1 | 20 | 3.74 |
| CC(=O)c1cc(Br)cc(NC(=O)c2nn[nH]n2)c1O | 2 | 2.814 |
| COc1cc([N+](=O)[O-])cc(C(=O)Nc2nn[nH]n2)c1O | 1 | 2.447 |
| Cc1cc(NC(=O)c2nn[nH]n2)c(O)c(C(N)=O)c1 | 5 | 3.118 |
| O=C(Nc1nn[nH]n1)c1cc(F)ccc1O | 0.1 | 1.348 |
| CC(=O)c1cc(C)cc(C(=O)Nc2nn[nH]n2)c1O | 1 | 2.417 |
| COc1cc(NC(=O)c2nn[nH]n2)c(O)c(C(C)=O)c1 | 10 | 3.443 |
| CCc1cc(NC(=O)c2nn[nH]n2)c(O)c(OC)c1 | 10 | 3.42 |
| CN(C)S(=O)(=O)c1ccc(O)c(NC(=O)c2nn[nH]n2)c1 | 0.25 | 1.892 |
| CCCc1cc(C(C)=O)c(O)c(C(=O)Nc2nn[nH]n2)c1 | 2 | 2.762 |
| CC(=O)c1cc(C(C)(C)C)cc(C(=O)Nc2nn[nH]n2)c1O | 0.4 | 2.084 |

| SMILES | Relative activity [1] | Log [MrI] [2] |
| --- | --- | --- |
| CC(=O)c1cccc(C(=O)Nc2nn[nH]n2)c1O | 1 | 2.393 |
| CC(=O)Nc1ccc(O)c(C(=O)Nc2nn[nH]n2)c1 | 0.01 | 0.418 |
| CC(=O)c1cc(S(N)(=O)=O)cc(C(=O)Nc2nn[nH]n2)c1O | 0.2 | 1.814 |
| CN(C)S(=O)(=O)c1ccc(O)c(C(=O)Nc2nn[nH]n2)c1 | 0.05 | 1.193 |
| COc1cc(NC(C)=O)cc(C(=O)Nc2nn[nH]n2)c1O | 0.02 | 0.766 |
| CCC(=O)c1cc(C#N)cc(NC(=O)c2nn[nH]n2)c1O | 5 | 3.156 |
| CCc1cc(C(C)=O)c(O)c(C(=O)Nc2nn[nH]n2)c1 | 1 | 2.439 |
| CCCc1cc(NC(=O)c2nn[nH]n2)c(O)c(C(C)=O)c1 | 10 | 3.461 |
| Cc1cc(NC(=O)c2nn[nH]n2)c(O)c(C(=O)C(F)(F)F)c1 | 0.2 | 1.8 |
| CCC(=O)c1cc(CC)cc(C(=O)Nc2nn[nH]n2)c1O | 0.75 | 2.34 |
| COc1cc(Br)cc(NC(=O)c2nn[nH]n2)c1O | 2 | 2.798 |
| COc1cccc(NC(=O)c2nn[nH]n2)c1O | 5 | 3.07 |
| CC(=O)c1cccc(NC(=O)c2nn[nH]n2)c1O | 20 | 3.694 |
| CCC(=O)c1cc(CC)cc(NC(=O)c2nn[nH]n2)c1O | 5 | 3.16 |
| CCc1cc(C(=O)Nc2nn[nH]n2)c(O)c(/C(C)=N/OC)c1 | 3.5 | 3.025 |
| CS(=O)(=O)c1ccc(O)c(C(=O)Nc2nn[nH]n2)c1 | 0.04 | 1.053 |
| CCC(=O)c1cc(C)cc(NC(=O)c2nn[nH]n2)c1O | 5 | 3.139 |
| Cc1ccc(O)c(C(=O)Nc2nn[nH]n2)c1 | 0.1 | 1.34 |
| Cc1cc(NC(=O)c2nn[nH]n2)c(O)c(C(=O)N(C)C)c1 | 1 | 2.463 |
| CC(=O)c1cc([N+](=O)[O-])cc(NC(=O)c2nn[nH]n2)c1O | 5 | 3.164 |
| CC(=O)c1cc(CC(C)C)cc(C(=O)Nc2nn[nH]n2)c1O | 0.2 | 1.783 |
| CC(=O)Nc1cc(C(C)=O)c(O)c(C(=O)Nc2nn[nH]n2)c1 | 0.2 | 1.784 |
| CO/N=C(\C)c1cc(C)cc(NC(=O)c2nn[nH]n2)c1O | 10 | 3.463 |
| CC(=O)c1cc(Cl)cc(C(=O)Nc2nn[nH]n2)c1O | 0.05 | 1.149 |

| SMILES | Relative activity [1] | Log [MrI] [2] |
| --- | --- | --- |
| CCc1cc(C(=O)Nc2nn[nH]n2)c(O)c(/C(C)=N/O)c1 | 10 | 3.462 |
| Cc1cc(NC(=O)c2nn[nH]n2)c(O)c(C(=O)C(C)C)c1 | 5 | 3.16 |
| C/C(=N\O)c1cc(C)cc(NC(=O)c2nn[nH]n2)c1O | 35 | 3.985 |
| CC(=O)c1ccc(O)c(C(=O)Nc2nn[nH]n2)c1 | 0.02 | 0.694 |
| CC(=O)c1cc(NC(=O)c2nn[nH]n2)c(O)c(C(C)=O)c1 | 0.5 | 2.16 |
| Cc1cc(NC(=O)c2nn[nH]n2)c(O)c(C(=O)C2CC2)c1 | 5 | 3.157 |
| COc1cc(C)cc(C(=O)Nc2nn[nH]n2)c1O | 0.5 | 2.095 |
| CC(=O)c1cc(S(C)(=O)=O)cc(NC(=O)c2nn[nH]n2)c1O | 2 | 2.813 |
| CCc1cc(OC)c(O)c(C(=O)Nc2nn[nH]n2)c1 | 1 | 2.42 |
| CC(=O)c1cc(C#N)cc(NC(=O)c2nn[nH]n2)c1O | 10 | 3.435 |
| CC(=O)c1cc(C)cc(NC(=O)c2nn[nH]n2)c1O | 10 | 3.417 |
| Cc1cc(NC(=O)c2nn[nH]n2)c(O)c(C(=O)Cc2ccccc2)c1 | 0.1 | 3.528 |
| COc1ccc(O)c(C(=O)Nc2nn[nH]n2)c1 | 0.2 | 1.672 |
| COc1cc(Br)cc(C(=O)Nc2nn[nH]n2)c1O | 0.2 | 1.798 |
| CC(=O)c1cc(Cl)cc(NC(=O)c2nn[nH]n2)c1O | 7 | 3.295 |
| CC(C)(C)c1ccc(O)c(C(=O)Nc2nn[nH]n2)c1 | 0.01 | 0.417 |
| COc1cc(C#N)cc(C(=O)Nc2nn[nH]n2)c1O | 2 | 2.716 |
| O=C(Nc1nn[nH]n1)c1cc(C(F)(F)F)ccc1O | 0.02 | 0.737 |
| N#Cc1ccc(O)c(C(=O)Nc2nn[nH]n2)c1 | 0.5 | 2.061 |
| CC(=O)c1cc(Br)cc(C(=O)Nc2nn[nH]n2)c1O | 0.05 | 1.212 |
| COc1cc(C)cc(NC(=O)c2nn[nH]n2)c1O | 2.5 | 2.794 |
| CCCC(=O)c1cc(C)cc(NC(=O)c2nn[nH]n2)c1O | 4 | 3.063 |
